In patent publication US7354915B2 (Wyeth, priority 2003, dated 2008):
Several values for one entry are separate records, joined by “and”; a condition that tells them apart may be missing. Equal values may be shown once.

Columns and labels:
[1] = test system: rat uterine decidualization; assay: Rat decidualization assay; assay type: in vivo; conditions: ovariectomized female Sprague-Dawley rats; for EC50 for uterine weight (decidual response) / Estimated average EC50 (decidual response): s.c.; for EC50 for uterine weight (decidual response): once daily for seven days, individual studies (Exp); for Estimated average EC50 (decidual response): average of dose-response curves
Experimental: B. Rat decidualization assay • 1. […] Methods: • a. […] The animals were treated once daily for seven days. […] Dosing • Doses were prepared based upon mg/kg mean group body weight. In all studies, a control group receiving vehicle was included. […] The contralateral horn was not scratched and served as an unstimulated control. Approximately 24 hours following the final treatment, rats were sacrificed by CO2 asphyxiation and body weight measured. Uteri were removed and trimmed of fat. Decidualized (D-horn) and control (C-horn) uterine horns were weighed separately. • 3.
Body weight: Mean total animal body weight (default-kg)
Decidual response: [(D−C)/C]×100%

[2] = test system: T47D cells; assay: T47D cell proliferation assay (BrdU incorporation); assay type: cell-based
Experimental: A. T47D cell proliferation assay • 1. Objective: • Determination of progestational and antiprogestational potency was performed by using a cell proliferation assay in T47D cells. A compound's effect on DAN synthesis in T47D cells was measured. • 2. Methods: • a. Reagents: • Growth medium: DMEM:F12 (1:1) (GIBCO, BRL) supplemented with 10% (v/v) fetal bovine serum (not heat-inactivated), 100 U/mL penicillin, […] streptomycin, and 2 mM GlutaMax (GIBCO, BRL). • Treatment medium: Minimum Essential Medium (MEM) (#51200-038GIBCO, BRL) phenol red-free supplemented with 0.5% charcoal stripped fetal bovine serum, 100 U/mL penicillin, […] streptomycin, and 2 mM GlutaMax (GIBCO, BRL). • b. Cell Culture: • Stock T47 D cells were maintained in growth medium. For BrdU incorporation assay, cells were plated in 96-well plates (Falcon, Becton Dickinson Labware) at 10,000 cells/well in growth medium. […] Cell Proliferation Assay: • At the end of BrdU labeling, the medium was removed and BrdU incorporation was measured using a cell proliferation ELISA kit (#RPN 250, Amersham Life Science) according to manufacturer's instructions. […] Then 25 μL of 1 M sulfuric acid was added to each well to stop color reaction and optical density read in a plate reader at 450 nm within 5 minutes. • 3. […] EC50 or IC50 values were calculated from the retransformed values. […]

Row | Estimated average EC50 (decidual response) [1] | SMILES | EC50 for uterine weight (decidual response) [1] | further results
1 | – | CC(=O)[C@H]1CC[C@H]2[C@@H]3CCC4=CC(=O)CC[C@]4(C)[C@H]3CC[C@]12C [Progesterone] | 5.50 mg/kg, s.c. | –
2 | 0.10 mg/kg, s.c. | C#C[C@]1(O)CC[C@H]2[C@@H]3CCC4=CC(=O)CC[C@@H]4[C@H]3C(=C)C[C@@]21CC [3-Ketodesogestrel] | 0.10 mg/kg, s.c. and 0.06 mg/kg, s.c. and 0.11 mg/kg, s.c. | –
3 | – | C[C@H](O)C(=O)[C@@]1(C)CC[C@H]2[C@@H]3CCC4=CC(=O)CCC4=C3CC[C@@]21C [Trimegestone] | – | EC50 ([2]; agonist mode, individual studies (Exp), read-out: EC50 (half-maximal increase in BrdU incorporation)): 0.017 nM and 0.014 nM and 0.019 nM
4 | 0.10 mg/kg, s.c. | C#C[C@]1(O)CC[C@H]2[C@@H]3CCC4=CC(=O)CC[C@@H]4[C@H]3CC[C@@]21CC [Levonorgestrel] | 0.08 mg/kg, s.c. and 0.12 mg/kg, s.c. and 0.09 mg/kg, s.c. (2×) | –
5 | – | CC(=O)O[C@]1(C(C)=O)CC[C@H]2[C@@H]3C[C@H](C)C4=CC(=O)CC[C@]4(C)[C@H]3CC[C@@]21C [MPA, medroxyprogesterone acetate] | 0.42 mg/kg, s.c. and 0.39 mg/kg, s.c. (2×) | –
6 | – | CC#C[C@]1(O)CC[C@H]2[C@@H]3CCC4=CC(=O)CCC4=C3[C@@H](c3ccc(N(C)C)cc3)C[C@@]21C [RU486] | – | IC50 ([2]; read-out: IC50 (half-maximal decrease in trimegestone induced BrdU incorporation), antagonist mode in the presence of 0.03 nM trimegestone, individual studies (Exp)): 0.016 nM and 0.018 nM; IC50 for uterine weight (decrease in EC50 progesterone induced decidual response) ([1]; p.o., with progesterone 5.6 mg/kg, individual studies (Exp.)): 0.21 mg/kg, p.o. and 0.14 mg/kg, p.o.
